Test: In vitro release of sunitinib from PLGA nanofiber-based mesh
Assay type: physicochemical
Settings: 10% sunitinib/PLGA (w/w) (FIG. 14)

duration of in vitro sustained release: 30 days
Structure (SMILES): CCN(CC)CCNC(=O)c1c(C)[nH]c(/C=C2\C(=O)Nc3ccc(F)cc32)c1C [sunitinib, Sunitinib malate]

From US20190071796A1, “PROCESS AND APPARATUS FOR MAKING ALIGNED OR TWISTED ELECTROSPUN FIBERS AND DEVICES” (The Johns Hopkins University, priority 2016, published 2019)
